Measurements as given in patent US20240116985A1, “STAPLED PEPTIDES AND METHODS THEREOF” (priority 2020, published 2024).

Experiments:
[1] = molecular target: T1, beta-catenin/TCF4 engagement (Homo sapiens, UniProt P35222); assay: Nano-BRET target engagement assay (B-cat-Halo & TCF4-Luc in HEK293 cells); assay type: cell-based; settings: absolute IC50; read-out: NanoBRET Abs IC50
T1 construct: expressed in transfected cells; host or cells: HEK293
T1 sequence (P35222 1-781): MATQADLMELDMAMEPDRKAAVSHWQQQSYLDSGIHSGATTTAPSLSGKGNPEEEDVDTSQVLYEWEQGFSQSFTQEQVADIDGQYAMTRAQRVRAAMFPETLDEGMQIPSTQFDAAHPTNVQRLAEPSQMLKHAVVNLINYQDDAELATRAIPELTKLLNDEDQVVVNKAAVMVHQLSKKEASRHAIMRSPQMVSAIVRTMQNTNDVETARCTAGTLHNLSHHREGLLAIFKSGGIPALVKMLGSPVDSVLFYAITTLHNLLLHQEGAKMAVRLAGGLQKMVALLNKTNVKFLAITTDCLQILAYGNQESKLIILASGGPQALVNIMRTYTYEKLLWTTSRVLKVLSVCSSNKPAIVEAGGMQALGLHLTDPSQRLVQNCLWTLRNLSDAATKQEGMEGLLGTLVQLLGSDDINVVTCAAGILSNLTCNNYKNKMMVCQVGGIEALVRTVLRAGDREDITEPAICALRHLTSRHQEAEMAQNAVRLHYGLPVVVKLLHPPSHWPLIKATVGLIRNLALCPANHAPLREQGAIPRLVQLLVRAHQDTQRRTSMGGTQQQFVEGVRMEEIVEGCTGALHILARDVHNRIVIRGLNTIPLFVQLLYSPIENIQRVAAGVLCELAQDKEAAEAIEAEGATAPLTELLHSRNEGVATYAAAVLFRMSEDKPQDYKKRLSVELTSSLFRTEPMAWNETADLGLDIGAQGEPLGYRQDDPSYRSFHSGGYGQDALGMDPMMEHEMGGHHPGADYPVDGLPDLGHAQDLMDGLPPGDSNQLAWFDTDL

[2] = molecular target: T2, full-length beta-Catenin (Uniprot ID P35222) (Homo sapiens, UniProt P35222); assay: Fluorescence polarization IC50 (beta-catenin / 5FAM-TCF4 10-53 competition); assay type: binding; settings: fluorescence polarization; read-out: beta-Catenin FP IC50
T2 construct: 10 nM full-length beta-Catenin (Uniprot ID P35222)
T2 sequence (P35222 1-781): T1 sequence (P35222 1-781)

| IC50 [1] [nM] | IC50 [2] [nM] | Compound |
| --- | --- | --- |
| 12800 | 82 | CC(=O)N1CCC[C@]12CC=CCCCC1(CCCC=CCCCOC(=O)N3CC[C@@](C(=O)N[C@@H](Cc4ccccc4C(F)(F)F)C(=O)N[C@@H](Cc4ccc5ccccc5c4)C(=O)N[C@@H](CCC(N)=O)C(N)=O)(C3)NC(=O)[C@H](CC(C)C)NC(=O)[C@H](Cc3ccccc3)NC(=O)[C@H](C)NC(=O)[C@H](C)NC(=O)[C@H](Cc3cccc(C(=O)O)c3)NC(=O)[C@H](CC(=O)O)NC1=O)NC(=O)[C@H](CC(C)(C)C)NC(=O)[C@H](CC(=O)O)NC2=O (stereo partly drawn) [I-2460, Ac-PL3-Asp-Npg-B5-Asp-3COOHF-Ala-Ala-Phe-Leu-PyrS2-2F3MeF-2NapA-Gln-NH2] |
| 4700 | 40 | CC(=O)N1CCC[C@]12CC=CCCCC1(CCCC=CCCCOC(=O)N3CC[C@@](C(=O)N[C@@H](Cc4ccccc4C(F)(F)F)C(=O)N[C@H](C(=O)N[C@@H](CCC(N)=O)C(N)=O)[C@H](C)c4ccc5ccccc5c4)(C3)NC(=O)[C@H](CC(C)C)NC(=O)[C@H](Cc3ccccc3)NC(=O)[C@H](C)NC(=O)[C@H](C)NC(=O)[C@H](Cc3cccc(C(=O)O)c3)NC(=O)[C@H](CC(=O)O)NC1=O)NC(=O)[C@H](CC(C)(C)C)NC(=O)[C@H](CC(=O)O)NC2=O (stereo partly drawn) [I-2462, Ac-PL3-Asp-Npg-B5-Asp-3COOHF-Ala-Ala-Phe-Leu-PyrS2-2F3MeF-RbMe2NapA-Gln-NH2] |
| 6500 | 47 | CC(=O)N1CCC[C@]12CC=CCCCC1(CCCC=CCCCOC(=O)N3CC[C@@](C(=O)N[C@@H](Cc4ccccc4C(F)(F)F)C(=O)N[C@H](C(=O)N[C@@H](C)C(N)=O)[C@H](C)c4ccc5ccccc5c4)(C3)NC(=O)[C@H](CC(C)C)NC(=O)[C@H](Cc3ccccc3)NC(=O)[C@H](C)NC(=O)[C@H](CCC(N)=O)NC(=O)[C@H](Cc3cccc(C(=O)O)c3)NC(=O)[C@H](CC(=O)O)NC1=O)NC(=O)[C@H](CC(C)(C)C)NC(=O)[C@H](CC(=O)O)NC2=O (stereo partly drawn) [I-2463, Ac-PL3-Asp-Npg-B5-Asp-3COOHF-Gln-Ala-Phe-Leu-PyrS2-2F3MeF-RbMe2NapA-Ala-NH2] |

Further lines, the compound ahead of its results:

| Compound | IC50 [1] [nM] | IC50 [2] [nM] |
| --- | --- | --- |
| CC(=O)N1CCC[C@]12CC=CCCCC1(CCCC=CCCCOC(=O)N3CC[C@@](C(=O)N[C@@H](Cc4ccccc4C(F)(F)F)C(=O)N[C@H](C(=O)N[C@@H](C)C(N)=O)[C@@H](C)c4csc5ccccc45)(C3)NC(=O)[C@H](CC(C)C)NC(=O)[C@H](Cc3ccccc3)NC(=O)[C@H](C)NC(=O)[C@H](CCC(N)=O)NC(=O)[C@H](Cc3cccc(C(=O)O)c3)NC(=O)[C@H](CC(=O)O)NC1=O)NC(=O)[C@H](CC(C)(C)C)NC(=O)[C@H](CC(=O)O)NC2=O (stereo partly drawn) [I-2457, Ac-PL3-Asp-Npg-B5-Asp-3COOHF-Gln-Ala-Phe-Leu-PyrS2-2F3MeF-SbMeBztA-Ala-NH2] | 20800 | 52 |
| CC(=O)N1CCC[C@]12CC=CCCCC1(CCCC=CCCCOC(=O)N3CC[C@@](C(=O)N[C@@H](Cc4ccccc4C(F)(F)F)C(=O)N[C@H](C(=O)N[C@@H](CCC(N)=O)C(N)=O)[C@H](C)c4csc5ccccc45)(C3)NC(=O)[C@H](CC(C)C)NC(=O)[C@H](Cc3ccccc3)NC(=O)[C@H](C)NC(=O)[C@H](C)NC(=O)[C@H](Cc3cccc(C(=O)O)c3)NC(=O)[C@H](CC(=O)O)NC1=O)NC(=O)[C@H](CC(C)(C)C)NC(=O)[C@H](CC(=O)O)NC2=O (stereo partly drawn) [I-2458, Ac-PL3-Asp-Npg-B5-Asp-3COOHF-Ala-Ala-Phe-Leu-PyrS2-2F3MeF-RbMeBztA-Gln-NH2] | 5900 | 33 |
| CC(=O)N1CCC[C@]12CC=CCCCC1(CCCC=CCCCOC(=O)N3CC[C@@](C(=O)N[C@@H](Cc4ccccc4C(F)(F)F)C(=O)N[C@H](C(=O)N[C@@H](C)C(N)=O)[C@H](C)c4csc5ccccc45)(C3)NC(=O)[C@H](CC(C)C)NC(=O)[C@H](Cc3ccccc3)NC(=O)[C@H](C)NC(=O)[C@H](CCC(N)=O)NC(=O)[C@H](Cc3cccc(C(=O)O)c3)NC(=O)[C@H](CC(=O)O)NC1=O)NC(=O)[C@H](CC(C)(C)C)NC(=O)[C@H](CC(=O)O)NC2=O (stereo partly drawn) [I-2459, Ac-PL3-Asp-Npg-B5-Asp-3COOHF-Gln-Ala-Phe-Leu-PyrS2-2F3MeF-RbMeBztA-Ala-NH2] | 15100 | 56 |
